Laboratory results: patent publication US20240408086A1, “USE OF LUVADAXISTAT FOR THE TREATMENT OF COGNITIVE IMPAIRMENT” (TAKEDA PHARMACEUTICAL COMPANY LIMITED, priority 2021, published 2024)

Test system: adult patients with persistent negative symptoms of schizophrenia
Type: in vivo, human
Text: To assess changes in cognitive impairment associated with schizophrenia (CIAS), secondary endpoints included the 12-week change from baseline in the Brief Assessment of Cognition in Schizophrenia (BACS) composite score, a measure of cognition across multiple domains, and the Schizophrenia Cognition Rating Scale (SCORS) score, a measure of day-to-day cognitive functioning requiring input from an adult informant. Secondary endpoints were not corrected for multiplicity.
The BACS is specifically designed to measure treatment-related improvements in cognition and includes alternate forms. BACS is a reliable and sensitive measure of cognitive function in schizophrenia. The BACS is a cognition assessment battery that assesses 6 domains of cognitive function found to be consistently impaired in schizophrenia: verbal memory; working memory; motor speed; attention; executive functions; and verbal fluency. The primary measure from each test of the BACS is standardized by creating T-scores whereby the mean of the test session of a matched reference healthy participant is set to 50 and the standard deviation set to 10.

[1] = 125 mg once daily, MMRM, preliminary analysis
[2] = 125 mg once daily, preliminary analysis

Structure (SMILES): O=c1[nH]nc(CCc2ccc(C(F)(F)F)cc2)cc1O [Compound (I), luvadaxistat]
- BACS Attention Cognition Domain, Difference from Placebo for Week 6, LS Mean (SE) (50 mg, Week 6, MMRM): −0.1 (1.12)
- BACS Executive Functions Cognition Domain, Adjusted Change from Baseline to Week 6, LS Mean (SE) (50 mg, Week 6, MMRM): 0.9 (1.22)
- BACS Executive Functions Cognition Domain, Difference from Placebo for Week 6, LS Mean (SE) (50 mg, Week 6, MMRM): 2.1 (1.53)
- BACS Verbal Fluency Cognition Domain, Adjusted Change from Baseline to Week 6, LS Mean (SE) (50 mg, Week 6, MMRM): −0.3 (0.70)
- BACS Verbal Fluency Cognition Domain, Difference from Placebo for Week 6, LS Mean (SE) (50 mg, Week 6, MMRM): −0.5 (0.87)
- BACS Attention Cognition Domain, Change from Baseline to Week 12, Mean (SD) (50 mg, Week 12): 2.2 (6.95)
- BACS Attention Cognition Domain, Change from Baseline to Week 12, Median (50 mg, Week 12): 2.0
- BACS Attention Cognition Domain, Week 12, Mean (SD) (50 mg, Week 12): 38.0 (11.83)
- BACS Attention Cognition Domain, Week 12, Median (50 mg, Week 12): 39.0
- BACS Executive Functions Cognition Domain, Change from Baseline to Week 12, Mean (SD) (50 mg, Week 12): 2.6 (7.73)
- BACS Executive Functions Cognition Domain, Change from Baseline to Week 12, Median (50 mg, Week 12): 1.0
- BACS Executive Functions Cognition Domain, Week 12, Mean (SD) (50 mg, Week 12): 46.4 (10.55)
- BACS Executive Functions Cognition Domain, Week 12, Median (50 mg, Week 12): 49.5
- BACS Verbal Fluency Cognition Domain, Change from Baseline to Week 12, Mean (SD) (50 mg, Week 12): 1.5 (5.87)
- BACS Verbal Fluency Cognition Domain, Change from Baseline to Week 12, Median (50 mg, Week 12): 0.0
- BACS Verbal Fluency Cognition Domain, Week 12, Mean (SD) (50 mg, Week 12): 41.8 (10.41)
- BACS Verbal Fluency Cognition Domain, Week 12, Median (50 mg, Week 12): 40.0
- BACS Attention Cognition Domain, Adjusted Change from Baseline to Week 12, LS Mean (SE) (50 mg, Week 12, MMRM): 2.3 (1.02)
- BACS Attention Cognition Domain, Difference from Placebo for Week 12, LS Mean (SE) (50 mg, Week 12, MMRM): 0.4 (1.28)
- BACS Executive Functions Cognition Domain, Adjusted Change from Baseline to Week 12, LS Mean (SE) (50 mg, Week 12, MMRM): 1.8 (1.09)
- BACS Executive Functions Cognition Domain, Difference from Placebo for Week 12, LS Mean (SE) (50 mg, Week 12, MMRM): 1.2 (1.36)
- BACS Verbal Fluency Cognition Domain, Adjusted Change from Baseline to Week 12, LS Mean (SE) (50 mg, Week 12, MMRM): 1.2 (0.85)
- BACS Verbal Fluency Cognition Domain, Difference from Placebo for Week 12, LS Mean (SE) (50 mg, Week 12, MMRM): 0.2 (1.07)
- BACS Verbal Memory Cognition Domain, Difference from Placebo for Week 6, LS Mean (SE) (125 mg once daily, MMRM, one-sided unadjusted p 0.025, preliminary analysis): 2.5 (1.29)
- BACS Composite Score, Difference from Placebo for Week 6, LS Mean (SE) (125 mg once daily, MMRM, one-sided unadjusted p 0.038, preliminary analysis): 1.8 (1.02)
- BACS Motor Speed Cognition Domain, Difference from Placebo for Week 12, LS Mean (SE) (125 mg once daily, MMRM, one-sided unadjusted p 0.067, preliminary analysis): 1.8 (1.18)
- BACS Composite Score, Difference from Placebo for Week 12, LS Mean (SE) (125 mg once daily, MMRM, one-sided unadjusted p 0.095, preliminary analysis): 1.5 (1.16)
- BACS Verbal Memory Cognition Domain, Difference from Placebo for Week 12, LS Mean (SE) (125 mg once daily, MMRM, one-sided unadjusted p 0.164, preliminary analysis): 1.4 (1.44)
- BACS Working Memory Cognition Domain, Difference from Placebo for Week 6, LS Mean (SE) (125 mg once daily, MMRM, one-sided unadjusted p 0.239, preliminary analysis): 0.8 (1.16)
- BACS Working Memory Cognition Domain, Difference from Placebo for Week 12, LS Mean (SE) (125 mg once daily, MMRM, one-sided unadjusted p 0.406, preliminary analysis): 0.3 (1.35)
- BACS Motor Speed Cognition Domain, Difference from Placebo for Week 6, LS Mean (SE) (125 mg once daily, MMRM, one-sided unadjusted p 0.753, preliminary analysis): −0.9 (1.26)
- BACS Composite Score, Adjusted Change from Baseline to Week 6, LS Mean (SE) [1]: 1.4 (0.80)
- BACS Composite Score, Adjusted Change from Baseline to Week 12, LS Mean (SE) [1]: 2.3 (0.91)
- BACS Motor Speed Cognition Domain, Adjusted Change from Baseline to Week 6, LS Mean (SE) [1]: −1.0 (0.98)
- BACS Motor Speed Cognition Domain, Adjusted Change from Baseline to Week 12, LS Mean (SE) [1]: 1.3 (0.93)
- BACS Verbal Memory Cognition Domain, Adjusted Change from Baseline to Week 6, LS Mean (SE) [1]: 1.2 (1.01)
- BACS Verbal Memory Cognition Domain, Adjusted Change from Baseline to Week 12, LS Mean (SE) [1]: 0.8 (1.13)
- BACS Working Memory Cognition Domain, Adjusted Change from Baseline to Week 6, LS Mean (SE) [1]: 0.9 (0.90)
- BACS Working Memory Cognition Domain, Adjusted Change from Baseline to Week 12, LS Mean (SE) [1]: 1.0 (1.06)
- BACS Composite Score, Change from Baseline to Week 6, Mean (SD) [2]: 1.9 (4.95)
- BACS Composite Score, Change from Baseline to Week 6, Median [2]: 2.0
- BACS Composite Score, Change from Baseline to Week 12, Mean (SD) [2]: 2.9 (6.54)
- BACS Composite Score, Change from Baseline to Week 12, Median [2]: 3.5
- BACS Composite Score, Week 6, Mean (SD) [2]: 35.6 (14.55)
- BACS Composite Score, Week 6, Median [2]: 37.0
- BACS Composite Score, Week 12, Mean (SD) [2]: 37.1 (15.02)
- BACS Composite Score, Week 12, Median [2]: 38.5
- BACS Motor Speed Cognition Domain, Change from Baseline to Week 6, Mean (SD) [2]: 0.0 (5.97)
- BACS Motor Speed Cognition Domain, Change from Baseline to Week 6, Median [2]: 0.5
- BACS Motor Speed Cognition Domain, Change from Baseline to Week 12, Mean (SD) [2]: 2.5 (7.60)
- BACS Motor Speed Cognition Domain, Change from Baseline to Week 12, Median [2]: 2.0
- BACS Motor Speed Cognition Domain, Week 6, Mean (SD) [2]: 39.6 (10.80)
- BACS Motor Speed Cognition Domain, Week 6, Median [2]: 39.0
- BACS Motor Speed Cognition Domain, Week 12, Mean (SD) [2]: 42.6 (10.35)
- BACS Motor Speed Cognition Domain, Week 12, Median [2]: 42.0
- BACS Verbal Memory Cognition Domain, Change from Baseline to Week 6, Mean (SD) [2]: 1.8 (7.71)
- BACS Verbal Memory Cognition Domain, Change from Baseline to Week 6, Median [2]: 2.5
- BACS Verbal Memory Cognition Domain, Change from Baseline to Week 12, Mean (SD) [2]: 1.6 (8.07)
- BACS Verbal Memory Cognition Domain, Change from Baseline to Week 12, Median [2]: 1.0
- BACS Verbal Memory Cognition Domain, Week 6, Mean (SD) [2]: 42.4 (12.62)
- BACS Verbal Memory Cognition Domain, Week 6, Median [2]: 42.0
- BACS Verbal Memory Cognition Domain, Week 12, Mean (SD) [2]: 42.3 (13.54)
- BACS Verbal Memory Cognition Domain, Week 12, Median [2]: 42.5
- BACS Working Memory Cognition Domain, Change from Baseline to Week 6, Mean (SD) [2]: 1.5 (5.89)
